Here are results for 1 molecule from US9889105B2, “In vivo method for treating, inhibiting, and/or prophylaxis of cancer, such as pancreatic cancer” (U.S. Department of Veterans Affairs, priority 2010, dated 2018).

For series [1], the system named is BxPc3 cells. The series is described as follows: Apoptosis assay in BxPC3 cells. The note with it: comparison to commercial crocetin. The format is cell-based, human. Here is the method:
FITC Annexin V and PI for flow cytometry provide a rapid and convenient assay for apoptosis. Treated and control cells were incubated with annexin V conjugate and propidium iodide (PI). Then cells were deposited onto slides for fluorescence microscopy. Cells were also used for flow cytometry analysis for live, apoptotic and dead cells using annexin V conjugated to green-fluorescent FITC dye and propidium iodide (PI). Propidium iodide stains necrotic cells with red fluorescence whereas green FITC dye stains apoptotic cells.

Series [2] has as its system Akt. Kind of series: Western blot of Akt signaling in Panc-1 cells. The format is cell-based, human. The settings on record: 10 mM, listed as PC. Here is the method: (§1) FIG. 4B illustrates effect of purified crocetin (PC) and crude crocetin (CC) on EGFR (epidermal growth factor receptor), Akt signaling and Bax/Bcl-2 on Panc-1 cells.
(§2) The immuno-Western blot analyses were the same as described earlier by Banerjee et al. (Reference 26). Briefly, MIA-PaCa-2 and BxPC-3 cells following treatment with or without crocetin and tumor samples were homogenized. Then, both cell and tumor lysates were spun at 18000 g for 1 hr at 4° C., and the supernatants were collected for immunodetection. Protein concentration was measured by using the Comassie blue reagent assay (Pierce, Rockford, Ill.). Equal amount of protein were resolved in 10% SDS-PAGE, transferred onto nitrocellulose membranes. Membranes were blocked with super block (Pierce, Rockford, Ill.) followed by incubation with appropriate primary antibodies at 4° C., overnight. The antigen-antibody reactions were detected with HRP-conjugated anti-rabbit or anti-mouse IgG for one hour in room temperature. Immunoreactions were visualized by the ECL ([…]) chemiluminescence reagent kit (Pierce, Rockford, Ill.) and relative expression of proteins were calculated by densitometric analyses using ID image Analysis Software version 3.6 (Eastman Kodak Company, Rochester, N.Y.).

The test system of series [3] is DCLK-1. Kind of series: Western blot of DCLK1 expression. The format is cell-based, human. More on the design: dose or concentration left out as unconfirmed. The settings on record: Mia-PaCa2 cells. The procedure:
FIG. 7D illustrates DCLK1 expression. Western blot analysis of DCLK1 after treatment of Mia-PaCa2 cells treated with 10 mM of CC and PC of #5, #3 and #1 HPLC fractions.
as §2
(In general: In western blotting, separated proteins are transferred to a membrane and probed.)

Series [4] deals with Sonic Hedgehog signaling pathway. Kind of series: Western blot of Sonic Hedgehog signaling pathway proteins and target genes. The format is cell-based.
Source text: FIG. 7A illustrates western blots of onic Hedgehog signaling pathways proteins (sonic hedgehog, Gli-1, SUFU, Smoothened with beta-actin) expressions in treated lanes of I (CC), 2 (PC #5), 3 (PC #3) and 4 (PC #1).
FIG. 7B illustrates sonic hedgehog target genes: Patched, p21, cyclin D1 with actin treated by CC (Lane 1) and PC #5 (Lane 2), PC #3 (Lane 3) and PC #1 (Lane 4).
as §2

Series [5] deals with pancreatic cancer cells. Kind of series: Cytotoxicity against pancreatic cancer cells. The format is cell-based. The note with it: dose- and time-dependent. Here is the method: The human pancreatic adenocarcinoma cell lines MIA-PaCa-2, BxPC3, Capan-1 and ASPC-1 were obtained from the American Type Culture Collection (ATCC, Manassas, Va., USA) and grown in Dulbecco's modified Eagles medium (DMEM, Sigma Chemical Co, St Louis, Mo.) supplemented with 1 mM sodium pyruvate (Fisher Chemical Company), 100 U/ml of penicillin and 100 U/ml of streptomycin (Sigma Chemical Co, St Louis, Mo.) and 10% FBS (Hyclone, Road Logan, Utah) at 37° C. in a humidified tissue culture incubator containing 5% CO2 and 95% air. ˜70% confluent cells were treated with different concentrations (1-50 μM) of purified crocetinic acid and commercial crocetin for 72 h.

Series [6] deals with human cells. The settings on record: cited from earlier work.
Series [7] deals with Bax/Bcl-2. Kind of series: Western blot of Bax/Bcl-2 in Panc-1 cells. The format is cell-based, human. The note with it: Panc-1, Western blot. The procedure: as §1, §2
The test system of series [8] is MIA-PaCa-2 xenograft tumor. The series is described as follows: Apoptosis in xenograft tumors (cleaved caspase 3, TUNEL, Bax/Bcl-2). The format is in vivo, athymic (nude) mice. The note with it: daily treatment, versus vehicle. The procedure: FIG. 6C illustrates apoptosis. Top, tumor tissues were processed for Cleaved Caspase 3 immunohistochemistry. […] Caspase 3, Bax and Bcl-2 (middle) expressions of pancreatic tumors from same crocetinic acid-treated and control animals using Western Blot were carried out and Bax/Bcl-2 ratio was also determined (bottom). Columns, mean from six different animals; bars, SD (B and C). *, P<0.05; **, P<0.001 versus untreated control (Student's t test);
To explore whether the regression of tumor growth by crocetin is due to inhibition of proliferation, apoptotic cell death or both, we first evaluated PCNA (proliferating cell nuclear antigen) expression and then EGFR expression in tumors using histochemical analysis. […] Next, apoptosis by TUNEL assay was investigated in the tumors of mice treated with or without crocetin.

Series [9] relates to Panc-1 cells. Kind of series: Migration of Panc-1 cells in Bowden chamber. The format is cell-based, human. The note with it: 1 and 10 μM, 24 hours, compared with CC. Here is the method:
FIG. 4A illustrates effect of purified crocetin (PC) and crude crocetin (CC) on migration of Panc-1 cells. Panc-1 cells were incubated with PC and CC at concentrations of 1 and 10 μM in Bowden chamber for 24 hours and migration was studied.

Series [10] deals with BxPc3 cells. Kind of series: Proliferation assay in BxPC3 cells. The format is cell-based, human. The settings on record: comparison to commercial crocetin. The procedure: Pancreatic cancer cells were plated at desired density onto 96-well corning tissue culture plates. After 24 hours, cells were treated for 72 hours with different concentrations (1-50 μM) of purified crocetin and crude/commercial crocetin. Cells were labelled with Click-it EdU and were fixed. Then fixed cells were incubated with anti-Oregon Green antibody conjugated to horseradish peroxidase and measured flurescent product (excitation/emission˜568/585).

The mark [11] stands for this setting: in comparison to commercial crocetin.

As for `CC(C=CC=C(C)C(=O)O)=CC=CC=C(C)C=CC=C(C)C(=O)O` [crocetinic acid], in [1], the stimulation of apoptosis result is given as “stimulated apoptosis”. In [2], the “Akt expression and phosphorylation” value was “significantly inhibited”. Besides, the DCLK-1 expression entry in [3] is recorded as “significantly inhibited”. The DCLK-1 expression result in series [3] (listed as 5) is given as “reduction”. Further, in series [4] (Western blot), the Gli1 expression entry was “inhibited”, the SUFU expression result is recorded as “inhibited” and the smoothened expression entry is given as “inhibited”. Moreover, the “cyclin D1 expression” value in series [4] (Western blot, target protein) is “inhibited”. In [4] (setting [11]), the patched expression entry was “increased expression” and the “sonic hedgehog (Shh) expression” value is “significantly inhibited”. Further, the patched expression result in [4] (in comparison to commercial crocetin, listed as 5) is listed as “increased”. For the same molecule, the cytotoxicity entry in [5] is “significant cytotoxicity”. Besides, the “toxicity to human cells” value in [6] is “relatively nontoxic”. In series [7], the Bax/Bcl-2 ratio result is recorded as “increase” and the Bcl-2 entry is listed as “decrease”. In series [8], the “apoptosis by cleaved caspase 3 immunohistochemistry in tumors” value is on record as “Increased apoptosis”. Besides, the migration result in [9] is recorded as “significantly inhibited”. The inhibition of proliferation entry in [10] is “significantly inhibited”.
